Measurements: BindingDB's records for doi:10.1002/1439-7633(20021004)3:10 (Aventis Pharmaceuticals, 2002)
Where “and” joins values, the source holds several entries; their conditions need not be identical. Equal entries are not always repeated.

Molecular target: T1, Alpha-1B adrenergic receptor (Rattus norvegicus, UniProt P15823)
T1 sequence (P15823 whole entry): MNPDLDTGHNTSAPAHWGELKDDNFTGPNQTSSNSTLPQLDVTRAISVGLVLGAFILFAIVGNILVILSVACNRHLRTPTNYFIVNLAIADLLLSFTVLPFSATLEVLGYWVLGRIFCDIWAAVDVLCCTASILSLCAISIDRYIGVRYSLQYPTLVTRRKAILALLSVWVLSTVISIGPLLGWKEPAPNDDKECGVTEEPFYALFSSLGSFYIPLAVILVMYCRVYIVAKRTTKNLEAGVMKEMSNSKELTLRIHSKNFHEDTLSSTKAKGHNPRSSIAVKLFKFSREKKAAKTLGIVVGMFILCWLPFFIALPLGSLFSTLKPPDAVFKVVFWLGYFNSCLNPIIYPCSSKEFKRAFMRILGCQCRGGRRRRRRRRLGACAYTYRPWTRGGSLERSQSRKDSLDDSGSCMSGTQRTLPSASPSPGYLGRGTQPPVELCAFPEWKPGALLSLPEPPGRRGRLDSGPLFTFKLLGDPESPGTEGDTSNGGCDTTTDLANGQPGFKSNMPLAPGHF
Assay: Binding Assay
Procedure: All rat alpha-1 adrenoceptor binding was performed by Hugo M. vargas, Karen M. Brooks and Lynn Laws-Ricker.

Row | SMILES | Ki
1 | OCC(CN1Cc2cccc(F)c2C1)N1CCC(c2noc3cc(F)ccc23)CC1 (stereo not given) [Isoindoline, 12] | 232 nM
2 | OCC(CN1Cc2ccc(C(F)(F)F)cc2C1)N1CCC(c2noc3cc(F)ccc23)CC1 (stereo not given) [Isoindoline, 17] | 26 nM
3 | OCC(CN1CCc2ccccc2C1)N1CCC(c2noc3cc(F)ccc23)CC1 (stereo not given) [Isoindoline, 26] | 19 nM
4 | OCC(CN1Cc2ccc(F)cc2C1)N1CCC(c2noc3cc(F)ccc23)CC1 (stereo not given) [Isoindoline, 11] | 92.5 nM
5 | COc1ccc2c(c1)CN(CC(CO)N1CCC(c3noc4cc(F)ccc34)CC1)C2 (stereo not given) [Isoindoline, 19] | 20 nM
6 | OCC(CN1Cc2ccccc2C1)N1CCC(c2noc3cc(F)ccc23)CC1 (stereo not given) [Isoindoline, 9] | 43 nM and 54.5 nM and 225 nM
7 | COc1cccc2c1CN(CC(CO)N1CCC(c3noc4cc(F)ccc34)CC1)C2 (stereo not given) [Isoindoline, 20] | 17.5 nM

Next, values leading:

Row | Ki | SMILES
8 | 4.1 nM | O=C1c2ccccc2CN1CC(CO)N1CCC(c2noc3cc(F)ccc23)CC1 (stereo not given) [Isoindoline, 23]
9 | 11.9 nM | OCC(CN1Cc2ccc(Cl)cc2C1)N1CCC(c2noc3cc(F)ccc23)CC1 (stereo not given) [Isoindoline, 13]
10 | 12.4 nM | Cc1cccc2c1CN(CC(CO)N1CCC(c3noc4cc(F)ccc34)CC1)C2 (stereo not given) [Isoindoline, 16]
